# Tests used:
# Phytophthora cactorum = assay: Fungicidal efficacy by gassing, colonized millet grains; assay type: cell-based; set-up: Vitality score Nm (over 12 days): scale not given here; Reduction in viability RV / Reduction in vitality score RNm: unit not given here; settings: for Reduction in viability RV / Reduction in vitality score RNm: compared with the control
# From the text: These four organisms are the following:
# Phytophthora cactorum, one of the best known representatives of the Phytophthora family, polyphagous fungi which attack mainly tomato, sweet pepper and strawberry plants, these three crops representing the majority of the worldwide consumption of methyl bromide. Phytophthora cactorum, in particular, attacks mainly the strawberry plant and fruit trees.
# • Sclerotinia sclerotiorum: sclerotia • Sclerotium rolfsii: sclerotia • Rhizoctonia solani: colonized barley grains (mycelium and sclerotia) • Phytophthora cactorum: colonized millet grains (mycelium, sporangia and oospores) Preparation of the Fungi (24 h Before the Gassing Operation) 1. Preparation of the sclerotia of Sclerotinia sclerotiorum and of Sclerotium rolfsii: The fungi are cultured on malt agar medium until the sclerotia are obtained. The sclerotia are collected in a sterile manner and stored dry in empty Petri dishes until they are used. The sclerotia used for the trial are over 3 months old and are perfectly dormant. 2. Preparation of Phytophthora cactorum and of Rhizoctonia solani: The millet and barley used for the multiplication of the two fungi are moistened with ultrapure water by immersing for 24 hours. The grains are then slightly drained and then distributed into flasks and autoclaved (3 autoclavings at 110° C. for 20 minutes, 3 times at 24 hour intervals). Fragments of fungal culture are introduced into the flasks which are then incubated at 22° C.±2° C. (white light 18 h) until homogeneous colonization is obtained. The grains are then removed from the flasks in a sterile manner, dried in the sterile stream of a safety cabinet and then stored in the dry state until they are used. Conditions for Gassing and for Desorption
# All the batches of fungi to be treated are placed for a few hours at the trial temperature (20° C.). Between 35 and 300 units of fungi or “propagules” (grains or sclerotia) are subjected to gassing during each trial.
# Each fumigation chamber comprising to one or more species of fungi corresponds to a glass round-bottomed flask which is impervious to the gas and has a volume of 11 litres. Each round-bottomed flask is equipped with branch connections, one at the bottom for introducing the liquid DMDS, one at the top for collecting the air sample with a syringe.
# Before introducing the gas, a partial vacuum (−500 mbar) is established in the round-bottomed flask with a vacuum pump. This makes it possible, on the one hand, to avoid the phenomenon of excess pressure due to the expansibility of DMDS in the round-bottomed flask and, on the other hand, to promote better homogeneity of the air-gas mixture in the first few seconds which follow injection. The DMDS (weighed accurately to the mg) is injected with a syringe, in liquid form, through the bottom branch connection, that is to say under the screen placed at half height of the round-bottomed flask and supporting the batches of fungi. After introducing the product, the internal pressure of the round-bottomed flask is re-established at atmospheric pressure. A magnetic stirrer operates during the entire duration of the treatment in order to properly homogenize the air-gas mixture.
# At the end of the gassing, the cover for the round-bottomed flask is removed. One minute after this operation, the batches of fungi gassed are taken out and left in the open air for 15 minutes for desorption of the DMDS. They are then transferred into a Petri dish, the latter remaining open for 5 minutes to allow perfect desorption of the gas. […]
# [1] = test system: larvae of Meloidogyne arenaria; assay: Nematicidal in vitro test on second-stage juvenile larvae; assay type: in vivo; settings: for Immobility rate after 48 h: 24 h in solution then 24 h in pure water; for Immobility rate after 24 h: aqueous solution
# Experimental: The second-stage juvenile larvae (the free and infesting stage) are immersed for 24 hours in the test solution and then the number of larvae paralysed are counted before transferring them into pure water for another 24 hours. At the end of the 48 hours which have thus elapsed, the larvae paralysed are again counted and the larvae truly dead are counted the next day.
# The breeding of the nematodes was carried out on tomato plants. The tests were carried out with, aqueous solutions of DMDS at 0.0001%, 0.1%, 1% and 5% by mass, of DPDS at 1%, 5% and 10% by mass, and of allicin at 0.0003%, 0.0015% and 0.003% by mass, compared with a control consisting of pure water, and repeated five times. The ovicidal activity was also evaluated according to the same modalities, by counting the number of hatchings after 5 to 20 days following exposure to the products.
# [2] = CT 1 050 g·h/m^3 (C 15.91 g/m^3, T 66 h)
# [3] = CT 1 402 g·h/m^3 (C 21.24 g/m^3, T 66 h)
# [4] = CT 1 450 g·h/m^3 (C 30.96 g/m^3, T 48 h)
# [5] = CT 1 899 g·h/m^3 (C 28.77 g/m^3, T 66 h)
# [6] = CT 1 981 g·h/m^3 (C 30.02 g/m^3, T 66 h)
# [7] = CT 2 460 g·h/m^3 (C 51.25 g/m^3, T 48 h)
# [8] = CT 2 837 g·h/m^3 (C 42.98 g/m^3, T 66 h)
# [9] = CT 3 169 g·h/m^3 (C 48.02 g/m^3, T 66 h)
# [10] = CT 3 467 g·h/m^3 (C 52.53 g/m^3, T 66 h)
# [11] = CT 419 g·h/m^3 (C 17.46 g/m^3, T 24 h)
# [12] = CT 625 g·h/m^3 (C 26.04 g/m^3, T 24 h)
# [13] = CT 703 g·h/m^3 (C 29.29 g/m^3, T 24 h)
# [14] = CT 907 g·h/m^3 (C 37.79 g/m^3, T 24 h)
smiles,measurement,setting,value
"CSSC [DMDS, dimethyl disulphide]",Viability V,Phytophthora cactorum; [2],95%
same,Vitality score Nm (over 12 days),Phytophthora cactorum; [2],5.5
same,Reduction in viability RV,Phytophthora cactorum; [2],5.0
same,Reduction in vitality score RNm,Phytophthora cactorum; [2],43.1
same,Viability V,Phytophthora cactorum; [3],97.8%
same,Vitality score Nm (over 12 days),Phytophthora cactorum; [3],6.6
same,Reduction in viability RV,Phytophthora cactorum; [3],2.2
same,Reduction in vitality score RNm,Phytophthora cactorum; [3],32.2
same,Viability V,Phytophthora cactorum; [4],95%
same,Vitality score Nm (over 12 days),Phytophthora cactorum; [4],5.4
same,Reduction in viability RV,Phytophthora cactorum; [4],3.4
same,Reduction in vitality score RNm,Phytophthora cactorum; [4],40.7
same,Viability V,Phytophthora cactorum; [5],97.8%
same,Vitality score Nm (over 12 days),Phytophthora cactorum; [5],5.6
same,Reduction in viability RV,Phytophthora cactorum; [5],2.2
same,Reduction in vitality score RNm,Phytophthora cactorum; [5],42.6
same,Viability V,Phytophthora cactorum; [6],97.8%
same,Vitality score Nm (over 12 days),Phytophthora cactorum; [6],5.3
same,Reduction in viability RV,Phytophthora cactorum; [6],2.2
same,Reduction in vitality score RNm,Phytophthora cactorum; [6],45.7
same,Viability V,Phytophthora cactorum; [7],43.3%
same,Vitality score Nm (over 12 days),Phytophthora cactorum; [7],1.7
same,Reduction in viability RV,Phytophthora cactorum; [7],55.9
same,Reduction in vitality score RNm,Phytophthora cactorum; [7],81.2
same,Viability V,Phytophthora cactorum; [8],16.7%
same,Vitality score Nm (over 12 days),Phytophthora cactorum; [8],0.6
same,Reduction in viability RV,Phytophthora cactorum; [8],83.3
same,Reduction in vitality score RNm,Phytophthora cactorum; [8],93.6
same,Viability V,Phytophthora cactorum; [9],1.1%
same,Vitality score Nm (over 12 days),Phytophthora cactorum; [9],0.05
same,Reduction in viability RV,Phytophthora cactorum; [9],98.9
same,Reduction in vitality score RNm,Phytophthora cactorum; [9],99.5
same,Viability V,Phytophthora cactorum; [10],0%
same,Vitality score Nm (over 12 days),Phytophthora cactorum; [10],0
same,Reduction in viability RV,Phytophthora cactorum; [10],100
same,Reduction in vitality score RNm,Phytophthora cactorum; [10],100
same,Viability V,Phytophthora cactorum; [11],91.7%
same,Vitality score Nm (over 12 days),Phytophthora cactorum; [11],7.7
same,Reduction in viability RV,Phytophthora cactorum; [11],6.8
same,Reduction in vitality score RNm,Phytophthora cactorum; [11],15.5
same,Viability V,Phytophthora cactorum; [12],100%
same,Vitality score Nm (over 12 days),Phytophthora cactorum; [12],8.05
same,Reduction in viability RV,Phytophthora cactorum; [12],−1.7
same,Reduction in vitality score RNm,Phytophthora cactorum; [12],11.9
same,Viability V,Phytophthora cactorum; [13],100%
same,Vitality score Nm (over 12 days),Phytophthora cactorum; [13],8.3
same,Reduction in viability RV,Phytophthora cactorum; [13],−1.7
same,Reduction in vitality score RNm,Phytophthora cactorum; [13],9.1
same,Viability V,Phytophthora cactorum; [14],100%
same,Vitality score Nm (over 12 days),Phytophthora cactorum; [14],7.2
same,Reduction in viability RV,Phytophthora cactorum; [14],−1.7
same,Reduction in vitality score RNm,Phytophthora cactorum; [14],21.2
same,Mortality rate after 72 h,[1]; concentration by mass 1 %,80%
same,Immobility rate after 48 h,[1]; concentration by mass 1 %,84%
same,Immobility rate after 24 h,[1]; concentration by mass 1 %,72%
same,Mortality rate after 72 h,[1]; concentration by mass 5 %,98%
same,Immobility rate after 48 h,[1]; concentration by mass 5 %,98%
same,Immobility rate after 24 h,[1]; concentration by mass 5 %,97%
same,Nematostatic and nematicidal activity,[1]; concentration of greater than or equal to 1%,high nematostatic and nematicidal activity
same,Nematicidal activity,[1]; concentration of less than 1%,no nematicidal activity
same,Nematostatic activity,[1]; concentration of less than 1%,very weak nematostatic activity

# Reference: patent US8663669B2, “Pesticide treatment of soils or substrates with sulphur compounds” (Arkema France, priority 2002, dated 2014)
